Data on one compound can be found in patent publication US10308682B2, “Inhibition of tumor growth with aggregates of small molecules” (BRANDEIS UNIVERSITY, priority 2013, dated 2019).

Data set [1] concerns the target T1, tubulin heterodimers (Sus scrofa, UniProt P02550+P02554).
T1 construct: purchased Cytoskeleton
In words: In vitro tubulin polymerization assay. In kind it is biochemical. The text has this: Tubulin polymerization assay in the presence of 1. In vitro tubulin polymerization reactions in (a) as prepared or (c) filtered reaction cocktail without 1 (control) or with different concentrations of 1. The amount of microtubule is in proportion to optical density at 340 nm. The calculated polymerization rate (Vmax) and the final tubulin polymer mass vs concentrations of 1 from tubulin polymerization in (b) as prepared or (d) filtered reaction cocktail. Negative stained TEM images of molecular aggregates of 1 binding with tubulin. Buffer (control) or 1 (final concentration at 200 to 500 μM) was introduced into reaction cocktail containing fully assembled microtubule (after 60 min of polymerization). The amount of microtubule remain unchanged after 30 min. (e) Molecular aggregates of 1 (400 μM) incubated with tubulins heterodimers in general tubulin buffer. Scale bar=40 nm. White arrows point at tubulin clusters on the molecular aggregates of 1. Confocal images of tubulin stained HeLa and other cell lines. (f) Time dependent cytotoxicity of 1 towards HeLa cells. Data are presented as mean±SD of three independent experiments. Tubulin staining of HeLa cells treated with as-prepared medium containing (g) 0 μM, (h) 200 μM, (i) 300 μM and (j) 400 μM of 1, and filtered medium (k) containing 400 μM of 1 for 24 h. Insets are 3× enlarged images. T98G (l, m) and PC12 (n, o) were also treated with as-prepared medium containing 0 or 400 μM of 1 for 24 h for tubulin staining DNA was counterstained blue by DAPI. Scale bar=10 μm. See also FIG. 12.
As the major function of tubulin is to polymerize into microtubule, we carried out in vitro tubulin polymerization assay to evaluate how the molecular aggregates of 1 affect the polymerization of tubulin. We incubated tubulin heterodimers (i.e., the α- and β-tubulin heterodimer, existing almost exclusively in heterodimer form in cytoplasm) with 1 at different concentrations and monitored the formation of microtubule (FIG. 5). […] At 300 μM of 1, the polymerization curve starts to deviate slightly from the control curve. […] To confirm that the molecular aggregates of 1, but not monomeric 1, inhibit the formation of microtubules, we filtrated of the reaction mixture by a 0.22 μm PVDF filter before the addition of tubulins. […] However, filtrated reaction mixtures containing 200 to 500 μM of 1 has similar polymerization curve to that of control.

Data set [2] deals with HeLa cells. The experiment in a line: Intracellular concentration of 1 in HeLa cells by LC-MS. The class given is cell-based. The note with it: incubated with 300 μM and 400 μM for 24 h. How it is done:
FIG. 3 depicts the response of cancer cells toward molecular aggregates of 1. (a) Intracellular concentration of 1 in HeLa cells treated with 1 for 12 h at different temperatures measure by LC-MS (left bar=37° C.; right bar=4° C.). (b) Confocal images of FITC annexin V and PI stained HeLa cells without incubation with 1 (live cells), HeLa cells treated with 400 μM of 1 for 36 h, and necrotic HeLa cells (induced by DMSO). Scale bar=20 μm. (c) Fluorescence emission of 7-AAD and 1 in cell lysate (15,000 cell/mL) at λex=488 nm. (d) Cell cycle analysis, by flow cytometry, of HeLa cells treated with 0, 300 or 400 μM of 1 for 24 h. Depletion of G2/M phase occurs in cells treated with 400 μM of 1. […] The gaps were created on the HeLa cells of 100% confluence in 24 well plates, and measured after incubation for 18 h.
The cytotoxicity of the molecular aggregates of 1 toward the cancer cells in cell assays and on animal model warrants further examination on the mechanism of the cell death. […] We measured the intracellular concentrations of 1 in the lysate of the HeLa cells incubated with 300 μM and 400 μM of 1 for 24 h (FIG. 3a) at 37° C. or 4° C. Based on the amount of 1, measured by liquid chromatography-mass spectroscopy (LC-MS) and the estimated total cell volume, the concentration of 1 inside the cells is about 150% of the concentration of 1 used for the incubation at 37° C. […]

Data set [3] concerns tau. The experiment in a line: Hydrogel based protein pull-down assay, tau. The class given is binding. The note with it: protein mass-spectrometry. On the procedure:
One reason is that PC12 cells have slower metabolism and growth (e.g., doubling every 72 h) than that of cancer cells. […] Another reason is that, PC12 cells, as a neuronal cell, have abundant amount of microtubule-stabilizing proteins (e.g., tau and MAP2) to promote tubulin polymerization and stabilize microtubules. […] Therefore, the existence of microtubule-stabilizing proteins in neurons can counter the effect of the molecular aggregates of 1, which is consistent with that PC12 cells, incubated with 1 at 400 μM (FIG. 5p), still display intact microtubule network. These two effects together, protect the PC12 cells from cytotoxicity induced by molecular aggregates of 1 (FIG. 7).
4×10^7 of HeLa cells were scrapped from petri dish and washed with PBS buffer for 3 times then centrifuged at 300 g for 5 minutes. The collected cell pellet was mixed with phosphate buffer (100 mM) then snap freeze and thaw for 3 cycles to lyse the cells. The cell lysate was clarified by centrifugation at 12,000 g for 20 min at 4° C. to remove the whole cells, nuclei and large mitochondria. 50 μL of the supernatant lysate was gently mixed with 30 μL hydrogel of 1 (10 mM in PBS buffer, pH 7.6) on rotator at RT for 30 min. The hydrogel was collected by centrifugation (12,000 g, 5 min, 4° C.) and the supernatant was collected and placed on ice before analysis. […]

Data set [4] has as its system T98G cells. The experiment in a line: Tubulin staining (tubulin tracker), T98G cells. In kind it is cell-based. The note with it: 400 μM, 24 h.
In data set [5] the target is T2, microtubules (Sus scrofa, UniProt P02550+P02554).
T2 construct: purchased Cytoskeleton
T2 sequence (P02550 whole entry): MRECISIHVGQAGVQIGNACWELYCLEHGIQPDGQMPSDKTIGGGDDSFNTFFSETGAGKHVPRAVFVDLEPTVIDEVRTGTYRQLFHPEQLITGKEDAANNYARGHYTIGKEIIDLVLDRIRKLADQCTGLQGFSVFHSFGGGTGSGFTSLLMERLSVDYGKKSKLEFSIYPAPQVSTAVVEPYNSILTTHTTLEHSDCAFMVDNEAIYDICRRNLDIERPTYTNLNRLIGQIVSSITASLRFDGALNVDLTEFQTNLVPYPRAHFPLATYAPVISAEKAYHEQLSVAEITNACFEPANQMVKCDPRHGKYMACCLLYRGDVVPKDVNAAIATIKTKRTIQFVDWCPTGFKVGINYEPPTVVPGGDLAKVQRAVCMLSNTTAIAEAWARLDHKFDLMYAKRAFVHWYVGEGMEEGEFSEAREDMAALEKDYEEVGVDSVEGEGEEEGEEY
T2 sequence (P02554 whole entry): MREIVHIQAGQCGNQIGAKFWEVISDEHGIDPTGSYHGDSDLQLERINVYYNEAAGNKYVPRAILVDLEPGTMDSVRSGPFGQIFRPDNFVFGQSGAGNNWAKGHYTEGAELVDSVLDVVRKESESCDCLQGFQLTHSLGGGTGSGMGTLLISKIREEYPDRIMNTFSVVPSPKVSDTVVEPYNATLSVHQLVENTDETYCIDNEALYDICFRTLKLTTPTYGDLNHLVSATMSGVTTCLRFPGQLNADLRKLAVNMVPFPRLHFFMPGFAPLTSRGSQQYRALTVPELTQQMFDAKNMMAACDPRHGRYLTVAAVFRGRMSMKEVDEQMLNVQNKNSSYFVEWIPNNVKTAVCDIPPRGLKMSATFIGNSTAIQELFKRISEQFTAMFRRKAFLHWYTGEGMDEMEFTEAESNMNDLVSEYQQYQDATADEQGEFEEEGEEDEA
The experiment in a line: Addition of 1 to fully assembled microtubules. In kind it is biochemical. The note with it: final concentration 200 to 500 μM, added after 60 min polymerization. An excerpt: Tubulin polymerization assay in the presence of 1. In vitro tubulin polymerization reactions in (a) as prepared or (c) filtered reaction cocktail without 1 (control) or with different concentrations of 1. The amount of microtubule is in proportion to optical density at 340 nm. The calculated polymerization rate (Vmax) and the final tubulin polymer mass vs concentrations of 1 from tubulin polymerization in (b) as prepared or (d) filtered reaction cocktail. Negative stained TEM images of molecular aggregates of 1 binding with tubulin. Buffer (control) or 1 (final concentration at 200 to 500 μM) was introduced into reaction cocktail containing fully assembled microtubule (after 60 min of polymerization). The amount of microtubule remain unchanged after 30 min. (e) Molecular aggregates of 1 (400 μM) incubated with tubulins heterodimers in general tubulin buffer. Scale bar=40 nm. White arrows point at tubulin clusters on the molecular aggregates of 1. […]
Microtubules are highly dynamic, growing and shrinking at a constant rate. To determine whether molecular aggregates of 1 achieve the inhibition of microtubule formation through preventing microtubule growth or accelerating microtubule shrinkage, we applied 1 to the polymerization mixture after most of tubulin heterodimers already formed microtubules (60 min of pre-incubation) and monitored the change of microtubules.

Each structure is given as a SMILES string.

T1 sequence (P02550 whole entry): as the sequence (P02550 whole entry) above
T1 sequence (P02554 whole entry): as the sequence (P02554 whole entry) above

In the case of `O=C(Cc1ccc2ccccc2c1)N[C@@H](Cc1ccccc1)C(=O)N[C@@H](Cc1ccccc1)C(=O)O` [Compound 1], the “polymerization rate (Vmax)” value is given as “barely inhibits the polymerization of tubulins” in data set [1] (200 μM or 300 μM, as prepared) and “drastically decreases the Vmax” in data set [1] (400 or 500 μM, as prepared). The “final amount of polymers (microtubule)” value in data set [1] (300 μM, as prepared) was “slightly decreases the amount of microtubules”. The “reduction of final amount of polymers (microtubule)” value in data set [1] (400 or 500 μM, as prepared) is on record as “about 30 % decrease”. The “Vmax and final amount of polymers after filtration” value in data set [1] (400 or 500 μM, filtered by 0.22 μm PVDF filter) is “only causes slight decreases in both Vmax and the final amount of polymers of tubulins”. The figures for the “concentration of 1 inside the cells” value in data set [2] (4° C.) and in data set [2] (37° C.) were “about 30 % of the incubating concentration” and “about 150 % of the concentration of 1 used for the incubation”, respectively. Further, the “interaction of aggregates of 1 with tau” value in data set [3] was “little or no interaction”. The microtubule morphology entry in data set [4] is given as “disrupted microtubule network”. For the same compound, the “loss of preformed microtubules” value in data set [5] is “little notable loss of microtubules”.
